Test system: J2 larvae of the Root Knot Nematode (Meloidogyne incognita)
Assay: Touch response of J2 larvae after 24 hours exposure to predisposing agents
Format: in vivo
Experimental: The merits of alternative predisposing agents were examined by subjecting J2 larvae of the Root Knot Nematode (Meloidogyne incognita) to solutions of lignosulfonate and gallic acid. J2 larvae were exposed 24 hours to various concentrations of the materials in shallow 50 ml beakers. Following exposure, nematodes were inspected for activity level using touch response: […]

`O=C(O)c1cc(O)c(O)c(O)c1` [Gal Ac, Gallic Acid] was tested, and the Control % (5 ppm) was 30.7%, the “active, responding nematodes per total examined (viable/total), Mean” value (5 ppm) was 312/450 and the “active, responding nematodes per total examined (viable/total), Replication 1” value (5 ppm) was 305/462. For the same molecule, the “active, responding nematodes per total examined (viable/total), Replication 2” value (5 ppm) was 316/440, the “active, responding nematodes per total examined (viable/total), Replication 3” value (5 ppm) was 326/447 and the “active, responding nematodes per total examined (viable/total), Replication 4” value (5 ppm) was 302/450. For the same molecule, the “active, responding nematodes per total examined (viable/total), Total” value (5 ppm) was 1249/1799, the Control % (25 ppm) was 47.7% and the “active, responding nematodes per total examined (viable/total), Mean” value (25 ppm) was 239/457. For the same molecule, the “active, responding nematodes per total examined (viable/total), Replication 1” value (25 ppm) was 250/458, the “active, responding nematodes per total examined (viable/total), Replication 2” value (25 ppm) was 248/449 and the “active, responding nematodes per total examined (viable/total), Replication 3” value (25 ppm) was 232/459. For the same molecule, the “active, responding nematodes per total examined (viable/total), Replication 4” value (25 ppm) was 225/462, the “active, responding nematodes per total examined (viable/total), Total” value (25 ppm) was 955/1828 and the Control % (100 ppm) was 60.9%. For the same molecule, the “active, responding nematodes per total examined (viable/total), Mean” value (100 ppm) was 176/450, the “active, responding nematodes per total examined (viable/total), Replication 1” value (100 ppm) was 193/450 and the “active, responding nematodes per total examined (viable/total), Replication 2” value (100 ppm) was 185/448. For the same molecule, the “active, responding nematodes per total examined (viable/total), Replication 3” value (100 ppm) was 176/436, the “active, responding nematodes per total examined (viable/total), Replication 4” value (100 ppm) was 150/464 and the “active, responding nematodes per total examined (viable/total), Total” value (100 ppm) was 704/1798. For the same molecule, the Control % (1000 ppm) was 92.7%, the “active, responding nematodes per total examined (viable/total), Mean” value (1000 ppm) was 33/452 and the “active, responding nematodes per total examined (viable/total), Replication 1” value (1000 ppm) was 25/449. The “active, responding nematodes per total examined (viable/total), Replication 2” value (1000 ppm) was 39/444, the “active, responding nematodes per total examined (viable/total), Replication 3” value (1000 ppm) was 40/454 and the “active, responding nematodes per total examined (viable/total), Replication 4” value (1000 ppm) was 27/460. The “active, responding nematodes per total examined (viable/total), Total” value (1000 ppm) was 131/1807.

— patent US8367087B2, “Soil amendment compositions and methods for using the same” (priority 1998, dated 2013)
